Measured values as given in ChEMBL document CHEMBL1201862, “PubChem BioAssay data set” (2004).
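Five concentrations, 48 hours, 96-well plates. GI50 marks 50% less growth.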 Active and inactive are the calls of the source. Cut-off read from the data, not from the text of the source: active = GI50 up to about 1.1 µM and inactive = higher.

Key:
Assay in all cases: DTP human tumour cell line panel, 48 h
[1] = system: SNB-75
[2] = system: CCRF-CEM
[3] = system: BT-549
[4] = system: OVCAR-5
[5] = system: TK-10
[6] = system: IGROV-1
[7] = system: NCI-H460
[8] = system: A549
[9] = system: KM12
[10] = system: Malme-3M
[11] = system: HCT-116
[12] = system: MDA-MB-231
[13] = system: DU-145
[14] = system: Hs-578T
[15] = system: SK-MEL-2
[16] = system: HOP-62
[17] = system: MCF7
[18] = system: OVCAR-3
[19] = system: RPMI-8226
[20] = system: NCI-H522

Measured: GI50

COc1ccc(/C=C/C(=O)/C=C/c2ccc(OC)cc2OC)c(OC)c1
inactive: [1] 14.9 µM | [2] 2.92 µM | [3] 4.34 µM | [4] 4.01 µM | [5] 14.5 µM | [6] 10.1 µM | [7] 5.08 µM | [8] 14.4 µM | [9] 33.8 µM | [10] 4.19 µM | [11] 4.34 µM | [12] 29.9 µM | [13] 12.4 µM | [14] 26.3 µM | [15] 1.33 µM | [16] 44.5 µM | [17] 2.4 µM | [18] 2.76 µM | [19] 3.71 µM | [20] 2.41 µM

S=c1c2cc(I)ccc2nc(S)n1Cc1ccccc1
inactive: [1] 2.69 µM | [2] 1.84 µM | [3] 4.42 µM | [4] 17 µM | [5] 4.55 µM | [6] 4.05 µM | [7] 3.28 µM | [8] 3.68 µM | [9] 3.42 µM | [10] 4.01 µM | [11] 3.38 µM | [12] 6.37 µM | [13] 2.71 µM | [14] 7.16 µM | [15] 3.14 µM | [16] 2.87 µM | [17] 5.42 µM | [18] 2.9 µM | [19] 2.95 µM | [20] 4.38 µM

COc1cc2c(cc1OC)C1c3ccccc3CCCN1CC2 (stereo not given)
inactive: [1] > 100 µM | [2] > 100 µM | [3] > 100 µM | [4] > 100 µM | [5] > 100 µM | [6] > 100 µM | [7] > 10 µM | [8] > 100 µM | [9] > 100 µM | [10] > 100 µM | [11] 36.4 µM | [12] > 100 µM | [13] > 100 µM | [14] > 100 µM | [15] > 100 µM | [16] > 100 µM | [17] > 100 µM | [18] > 100 µM | [19] 46.7 µM | [20] > 100 µM

Cc1nn(-c2ccccc2)c2c1C(c1cc3ccccc3nc1Cl)NC(=O)N2 (stereo not given)
inactive: [1] 18.9 µM | [2] 25.8 µM | [3] 16.6 µM | [4] 22.5 µM | [5] 28.2 µM | [6] 11 µM | [7] 30.8 µM | [8] 56.2 µM | [9] 21.2 µM | [10] 20.8 µM | [11] 23.8 µM | [12] 20.6 µM | [13] 29.4 µM | [14] 27.5 µM | [15] 14.3 µM | [16] 20.4 µM | [17] 25.3 µM | [18] 32.7 µM | [19] 23.9 µM | [20] 16.5 µM

N#CCC(=O)N/N=C(\CCN1CCCC1)CC(c1ccccc1)c1c(O)c2ccccc2oc1=O (stereo not given)
inactive: [1] > 89.1 µM | [2] 39.4 µM | [3] 47.5 µM | [4] > 100 µM | [5] > 78.9 µM | [6] > 100 µM | [7] > 100 µM | [8] > 71.9 µM | [9] > 63.7 µM | [10] 60 µM | [11] > 84.1 µM | [12] 40.3 µM | [13] > 100 µM | [14] 63.7 µM | [15] > 61.1 µM | [16] > 100 µM | [17] 20.2 µM | [18] 65.3 µM | [19] 32.9 µM | [20] 70.6 µM
